The assay deals with T1, hGIP-R (Homo sapiens, UniProt P48546).
T1 construct: expressed in transfected cells; host or cells: HEK-293 clonal cell lines
T1 sequence (P48546 22-466): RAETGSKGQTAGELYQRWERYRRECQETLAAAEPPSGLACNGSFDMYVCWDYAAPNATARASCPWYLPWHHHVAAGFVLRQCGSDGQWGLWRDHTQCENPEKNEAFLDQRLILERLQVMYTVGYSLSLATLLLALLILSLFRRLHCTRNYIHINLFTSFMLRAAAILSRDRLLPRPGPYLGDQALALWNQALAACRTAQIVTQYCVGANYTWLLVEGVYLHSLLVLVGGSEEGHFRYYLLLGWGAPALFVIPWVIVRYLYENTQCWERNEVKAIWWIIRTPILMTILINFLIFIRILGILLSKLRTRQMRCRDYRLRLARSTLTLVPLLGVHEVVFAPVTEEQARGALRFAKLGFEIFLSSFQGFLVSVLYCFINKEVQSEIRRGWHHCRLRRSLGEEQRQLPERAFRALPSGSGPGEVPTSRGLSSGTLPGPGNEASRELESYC
Put plainly: Functional hGIP-R Assay (cAMP formation, HTRF). The format is cell-based. To be noted: for Emax: cAMP efficacy, percent of maximal response to GIP(1-42)OH, 37° C., 0.1% bovine casein, arithmetic mean ± SEM; for EC50: cAMP potency, HEK-293 cells expressing hGIP-R, incubated at 37° C. in the presence of 0.1% bovine casein, geometric mean, read-out: Human GIP-R EC50, nM (SEM, n). The method, then: Functional activity was determined using CAMP formation in HEK-293 clonal cell lines expressing hGIP-R. hGIP-R receptor expressing cells were treated with compound (20 point concentration-response curve in DMSO, 2-fold Labcyte Echo direct dilution, 384 well plate Corning Cat #3570) in DMEM (Gibco Cat #31053) supplemented with 1× GlutaMAX™ (Gibco Cat #35050), 0.1% bovine casein (Sigma C4765-10ML), 250 μM IBMX (3-Isobutyl-1-methylxanthine, Acros Cat #228420010) and 20 mM HEPES (Gibco Cat #15630) in a 20 μL assay volume (final DMSO concentration was 1%). After a 30 min incubation at 37° C., the resulting increase in intracellular cAMP was quantitatively determined using the Revvity CAMP Dynamic 2 HTRF Assay Kit (62AM4PEJ). Briefly, cAMP levels within the cell were detected by adding the cAMP-d2 conjugate in cell lysis buffer (10 μL) followed by the antibody anti-cAMP-Eu^3+-Cryptate, also in cell lysis buffer (10 μL). The resulting competitive assay was incubated for at least 60 min at RT, then detected using a BMG Labtech PHERAstar FSX instrument with excitation at 320 nm and emission at 665 nm and 620 nm. PHERAstar units (emission at 665 nm/620 nm*10,000) are inversely proportional to the amount of cAMP present and were converted to nM cAMP per well using a CAMP standard curve. The amount of cAMP generated (nM) in each well was converted to a percent of the maximal response observed with human GIP (1-42) OH. A relative EC50 value and percent top (Emax) were derived by non-linear regression analysis using the percent maximal response vs. the concentration of compound added, fitted to a four-parameter logistic equation.
Background: Cyclic AMP is a second messenger, typically raised through Gs and lowered through Gi signalling.

A word on the Emax: it is the greatest response seen or fitted, relative to the assay's reference. One may read the EC50 as the concentration at which the effect is half-maximal. Turning to `Cn1cc(C[C@@H](NC(=O)[C@H]2C[C@@H]2c2ccc(-c3cnc4nn(C)cc4c3)cc2)C(=O)NC(C)(C)Cn2nc(C(F)(F)F)cc2-c2ccn(C3CCOC3)n2)cn1` (mixture of isomers) [Example 53, (1S,2S)-N-((R)-1-((2-Methyl-1-(1-((RS)-tetrahydrofuran-3-yl)-5′-(trifluoromethyl)-1H,2′H-[3,3′-bipyrazol]-2′-yl)propan-2-yl)amino)-3-(1-methyl-1H-pyrazol-4-yl)-1-oxopropan-2-yl)-2-(4-(2-methyl-2H-pyrazolo[3,4-b]pyridin-5-yl)phenyl) cyclopropane-1-carboxamide, mixture of 2 diastereomers], the maximum response (Emax) worked out at 123 ± 4.24% and the EC50 is 22.6 nM.

In the case of `Cn1cc(C[C@@H](NC(=O)[C@H]2C[C@@H]2c2ccc(-c3cnc4nn(C)cc4c3)cc2)C(=O)NC(C)(C)Cn2nc(C(F)(F)F)cc2-n2nccn2)cn1` (single isomer, unassigned) [Example 13], the Emax came to 112 ± 0.275% and the EC50 worked out at 49.7 nM.

Consider `CN1CCC(n2cc(C(F)(F)F)nc2CC(C)(C)NC(=O)[C@@H](Cc2cnn(C(F)F)c2)N2CC[C@@]3(C[C@@H]3c3ccc(-c4cnc5nc(C6CC6)cn5c4)cc3Cl)C2=O)C1=O` (single isomer, unassigned) [Example 146], for which the Emax came to 120 ± 5.11% and the half-maximal effective concentration (EC50) worked out at 0.234 nM.

For the molecule `CC(C)(Cn1nc(C(F)(F)F)cc1-c1ccn(C2CC2)c(=O)c1)NC(=O)[C@@H](Cc1cnn(C(F)F)c1)N1CCC2(CC2c2ccc(-c3cnc4nc(C5CC5)cn4c3)nc2C2CC2)C1=O` (single isomer, unassigned) [Example 166], the Emax stood at 116 ± 2.13% and the half-maximal effective concentration (EC50) amounted to 0.359 nM.

As for `Cc1cn2cc(-c3ccc(C4CC45CCN([C@H](Cc4cnn(C(F)F)c4)C(=O)NC(C)(C)Cn4nc(C(F)(F)F)cc4-c4ccn(C6CC6)c(=O)c4)C5=O)c(C4CC4)n3)cnc2n1` (single isomer, unassigned) [Example 167], the Emax was 92.1 ± 0.883% and the concentration for a half-maximal effect (EC50) stood at 0.753 nM.

As for `Cn1cc(-c2cc(C(F)(F)F)nn2CC(C)(C)NC(=O)[C@@H](Cc2cnn(C(F)F)c2)N2CCC3(CC3c3ccc4cnn(C)c4c3)C2=O)cc(F)c1=O` (single isomer, unassigned) [Example 184], the Emax is 15.2 ± 1.27% and the 50% effective concentration (EC50) is 15.2 nM.

Take `Cn1cc2cc(-c3ccc([C@H]4C[C@@]45CCN([C@H](Cc4cnn(C(F)F)c4)C(=O)NC(C)(C)Cn4nc(C(F)(F)F)cc4-c4cc(F)c(=O)n(C)c4)C5=O)c(F)c3)cnc2n1` (single isomer, unassigned; isomer 1) [Example 99]: the Emax turned out to be 69.2 ± 0.431% and the concentration for a half-maximal effect (EC50) amounted to 6.84 nM.

Consider `Cc1cn2cc(-c3ccc([C@H]4C[C@@]45CCN([C@H](Cc4cnn(C(F)F)c4)C(=O)NC(C)(C)Cn4nc(C(F)(F)F)cc4-c4cnc(C6CC6)nc4)C5=O)cc3)cnc2n1` (single isomer, unassigned; isomer 1) [Example 101], for which the maximal response (Emax) amounted to 59.6 ± 0.0693% and the concentration giving a half-maximal response (EC50) was found to be 58.5 nM.

Consider `Cc1cn2cc(-c3ccc([C@H]4C[C@@]45CCN([C@H](Cc4cnn(C(F)F)c4)C(=O)NC(C)(C)Cn4nc(C(F)(F)F)cc4-c4cnc(C(F)(F)F)nc4)C5=O)cc3)cnc2n1` (single isomer, unassigned; isomer 1) [Example 102], for which the maximum response (Emax) worked out at 69.4 ± 0.0734% and the EC50 was 50.9 nM.

For `CN1CC2C=C(c3ccc([C@H]4C[C@@]45CCN([C@H](Cc4cnn(C(F)F)c4)C(=O)NC(C)(C)Cn4nc(C(F)(F)F)cc4-c4cnc(C(F)(F)F)nc4)C5=O)cc3)C=NC2C1=O` (single isomer, unassigned; isomer 1) [Example 103], the Emax stood at 73.3 ± 6.2% and the EC50 turned out to be 99.6 nM.

In the case of `Cn1cc(-c2cc(C(F)(F)F)nn2CC(C)(C)NC(=O)[C@@H](Cc2cnn(C(F)F)c2)N2CC[C@@]3(C[C@@H]3c3ccc(-c4cnc5nc(C(C)(C)O)ccc5c4)cc3)C2=O)ccc1=O` (single isomer, unassigned; isomer 1) [Example 104], the Emax came to 89 ± 1.12% and the half-maximal effective concentration (EC50) was 54.6 nM.

In the case of `COc1cc2cc(-c3ccc([C@H]4C[C@@]45CCN([C@H](Cc4cnn(C(F)F)c4)C(=O)NC(C)(C)Cn4nc(C(F)(F)F)cc4-c4ccc(=O)n(C)c4)C5=O)cc3)cnc2nc1C` (single isomer, unassigned; isomer 1) [Example 105], the Emax was 8.43 ± 1.23% and the half-maximal effective concentration (EC50) was determined as 49.8 nM.

For `CN1CC(n2cc3cc(-c4ccc([C@H]5C[C@@]56CCN([C@H](Cc5cnn(C(F)F)c5)C(=O)NC(C)(C)Cn5nc(C(F)(F)F)cc5-c5cc(F)c(=O)n(C)c5)C6=O)c(F)c4)cnc3n2)C1` (single isomer, unassigned; isomer 1) [Example 106], the Emax came to 77.3 ± 7.69% and the EC50 worked out at 36.3 nM.

Regarding `Cn1cc(-c2cc(C(F)(F)F)nn2CC(C)(C)NC(=O)[C@@H](Cc2cnn(C(F)F)c2)N2CC[C@@]3(C[C@@H]3c3ccc(-c4cnc5nn(CCO)cc5c4)cc3F)C2=O)cc(F)c1=O` (single isomer, unassigned; isomer 1) [Example 107], the Emax was 108 ± 0.709% and the EC50 came to 36.2 nM.

As to `Cc1cn2cc(-c3ccc(C4CC45CCN([C@H](Cc4cnn(C(F)F)c4)C(=O)NC(C)(C)Cn4nc(C(F)(F)F)cc4-c4cc(F)c(=O)n(C)c4)C5=O)c(C(F)F)c3)cnc2n1` (single isomer, unassigned; isomer 1) [Example 108], the maximal effect (Emax) is 81.7 ± 1.63% and the concentration giving a half-maximal response (EC50) was 0.47 nM.

`Cc1cn2cc(-c3ccc(C4CC45CCN([C@H](Cc4cnn(C(F)F)c4)C(=O)NC(C)(C)Cn4nc(C(F)(F)F)cc4-c4cnc(C)nc4)C5=O)c(C)n3)cnc2n1` (single isomer, unassigned; isomer 1) [Example 110]: the Emax is 50.8 ± 1.54% and the EC50 was found to be 4.34 nM.

As to `Cc1ncc(-c2cc(C(F)(F)F)nn2CC(C)(C)NC(=O)[C@@H](Cc2cnn(C(F)F)c2)N2CCC3(CC3c3ccc(-c4cnc5nn(C)cc5c4)nc3C)C2=O)cn1` (single isomer, unassigned; isomer 1) [Example 111], the Emax worked out at 28 ± 0.197% and the concentration for a half-maximal effect (EC50) came out at 6.75 nM.

Consider `Cc1ncc(-c2cc(C(F)(F)F)nn2CC(C)(C)NC(=O)[C@@H](Cc2cnn(C(F)F)c2)N2CCC3(CC3c3ccc(-c4cnc5nn(C)cc5c4)nc3C(F)(F)F)C2=O)cn1` (single isomer, unassigned; isomer 1) [Example 112], for which the maximal response (Emax) was 62 ± 0.9% and the half-maximal effective concentration (EC50) is 3.21 nM.

For `Cn1cc2cc(-c3ccc(C4CC45CCN([C@H](Cc4cnn(C(F)F)c4)C(=O)NC(C)(C)Cn4nc(C(F)(F)F)cc4-c4ccc(=O)n(C)c4)C5=O)c(C(F)(F)F)n3)cnc2n1` (single isomer, unassigned; isomer 1) [Example 113], the Emax turned out to be 45.5 ± 2.18% and the concentration giving a half-maximal response (EC50) amounted to 1.22 nM.

In the case of `[2H]C([2H])([2H])n1cc(C[C@H](C(=O)NC(C)(C)Cn2nc(C(F)(F)F)cc2-c2cnc(C)nc2)N2CC[C@@]3(C[C@@H]3c3ccc(-c4cnc5nn(C)cc5c4)cc3Cl)C2=O)cn1` (single isomer, unassigned; isomer 1) [Example 114], the maximal effect (Emax) was determined as 80.3 ± 0.191% and the 50% effective concentration (EC50) came out at 1.79 nM.

Turning to `[2H]C([2H])([2H])n1cc(C[C@H](C(=O)NC(C)(C)Cn2nc(C(F)(F)F)cc2-c2cnc(C)nc2)N2CCC3(CC3c3ccc(-c4cnc5nn(C)cc5c4)nc3C(F)(F)F)C2=O)cn1` (single isomer, unassigned; isomer 1) [Example 115], the Emax was 87.3 ± 0.526% and the half-maximal effective concentration (EC50) was found to be 4.65 nM.

`CC(=O)N1CCN(c2ccc(C3CC34CCN([C@H](Cc3cnn(C(F)F)c3)C(=O)NC(C)(C)Cn3nc(C(F)(F)F)cc3-c3cnc(C)nc3)C4=O)c(C(F)(F)F)n2)CC1` (single isomer, unassigned; isomer 1) [Example 116]: the maximum response (Emax) was determined as 23.1 ± 0.52% and the half-maximal effective concentration (EC50) worked out at 127 nM.

Consider `Cn1cc2cc(-c3ccc([C@H]4C[C@@]45CCN([C@H](Cc4cnn(C(F)F)c4)C(=S)NC(C)(C)Cn4nc(C(F)(F)F)cc4-c4cc(F)c(=O)n(C)c4)C5=O)c(F)c3)cnc2n1` (single isomer, unassigned; isomer 1) [Example 118], for which the Emax stood at 59.3 ± 1.52% and the concentration for a half-maximal effect (EC50) was found to be 4.02 nM.

Values taken from patent publication US20260108546A1 (ELI LILLY AND COMPANY, priority 2024, published 2026).
